The assay has as its system TALL-104 cells, BLT esterase secretion, DTNB absorbance. Briefly: blockers of BLT esterase secretion from TALL-104 – TALL-104 cells, BLT/DTNB absorbance, CherryPick01, confirmation (AID 720662). Conditions: active compounds read high; dose or concentration not given here.

Active and inactive are the calls of the source.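 How the source made its calls: active means inhibition of esterase secretion above 50%; inactive means inhibition of esterase secretion below 50%.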

Usually inhibition stands for the drop in the measured response relative to a control, in per cent. On to `CCOc1ccc2[nH]c3c(N4CCc5ccccc5C4)ncnc3c2c1`, for which the inhibition was -5% (inactive).

In the case of `Fc1ccc(/C=C\c2nccc3c2[nH]c2ccccc23)cc1`, the inhibition is 86%.

As to `O=C1Nc2ccc(Br)cc2/C1=C/C(=O)c1ccccc1`, the inhibition was 3% (inactive).

Take `CCCCC[C@@H](C)N1C[C@H](COCc2ccccc2)Oc2cc(N3CC[C@@H](N(C)C)C3)ccc2S1(=O)=O`: the inhibition was 64%.

Turning to `CCc1nc2ccc(C(=O)NC3CCN(Cc4ccccc4)CC3)cn2c1N(C)Cc1cc2ccccc2s1`, the inhibition is -4% (inactive).

On to `CC1=NOC(=O)/C1=C/c1ccc(-c2ccc(Cl)cc2)o1`, for which the inhibition is 73%.

As to `Cc1ccc(Nc2nc(NCc3ccco3)c3ccccc3n2)cc1`, the inhibition is 12% (inactive).

`COc1ccccc1CNc1nc(NCc2ccc(C(C)C)cc2)c2sccc2n1`: the inhibition was 54%.

With `Nc1c(C(=O)NCc2ccc(F)cc2)c2nc3ccccc3nc2n1CCCN1CCOCC1`, the inhibition is 15% (inactive).

In the case of `CC(=O)Nc1ccc2c(=O)n(-c3ccccc3)sc2c1`, the inhibition was 25% (inactive).

Turning to `COc1ccc(-c2cc(NC=O)c3ncc(-c4ccccc4)n3c2)cc1OC`, the inhibition was 63%.

Regarding `CCOC(=O)c1cc(-c2csc(Nc3c(C)cc(C)cc3C)n2)on1`, the inhibition was 68%.

For `O=C1C=CC(=O)N1N(c1ccccc1)c1ccccc1`, the inhibition is 27% (inactive).

Consider `Cc1ccc(S(=O)(=O)n2ccc3c(OCCOCCNCc4ccc(F)cc4)cccc32)cc1`, for which the inhibition was 67%.

Take `Cn1sc(=O)c2cc(S(=O)(=O)NC3CC3)ccc21`: the inhibition is 63%.

On to `CC1=C(C)CS(=O)N(S(=O)(=O)c2ccc(Cl)cc2)C1` (stereo not given), for which the inhibition was 99%.

As for `CCN(CC)CCCNc1ccc(-c2nnc(-c3ccc(OCC(C)C)cc3)o2)cn1`, the inhibition is 52%.

As to `O=c1c2ccc(F)cc2sn1-c1ccccc1`, the inhibition was 61%.

For the compound `COc1ccc([N+](=O)[O-])cc1Nc1c2ccccc2nc2ccccc12`, the inhibition is 10% (inactive).

Consider `O=CNc1cc(-c2ccsc2)cn2c(-c3ccccc3)cnc12`, for which the inhibition was 41% (inactive).

In the case of `COc1cccc(-c2cnc3c(NC(C)=O)cc(-c4ccsc4)cn23)c1`, the inhibition is 64%.

As to `COc1cccc(-c2cnc3c(NC=O)cc(-c4ccccc4)cn23)c1`, the inhibition was 43% (inactive).

Consider `CCCCCCSc1cccc(-c2nc3ccccn3c2NCc2ccccc2)c1`, for which the inhibition was 7% (inactive).

Regarding `Cc1ccc(-n2nnc3c(=O)oc4ccccc4c32)cc1`, the inhibition was 94%.

On to `CCOC(=O)c1nnc(-c2ccccc2)nc1Sc1ccccc1Cl`, for which the inhibition is -8% (inactive).

For the compound `Cc1cc(C)c2nc(C)cc(N/N=C/c3ccc(O)cc3)c2c1`, the inhibition was 88%.

Turning to `OC(CNCC(c1ccc(Cl)cc1Cl)c1c[nH]c2ccccc12)c1ccccc1` (stereo not given), the inhibition was 2% (inactive).

As to `O=C(OCc1ccccc1)N(CCCCN(CCCNCc1ccccc1)C(=O)OCc1ccccc1)CCCNCc1ccccc1`, the inhibition was 88%.

Turning to `CCOC(=O)c1c(NC(=O)COc2ccccc2OCC)sc2c1CC(C)(C)NC2(C)C`, the inhibition was 55%.

On to `COC(=O)c1c(NC(=O)c2ccc(C(=O)c3ccccc3)cc2)sc2c1CC(C)(C)NC2(C)C`, for which the inhibition was 5% (inactive).

As for `COc1cc(-c2coc3c(C(=O)NCc4ccc(OC)c(OC)c4)cccc23)ccc1O`, the inhibition is 20% (inactive).

For the compound `O=c1c2ccccc2sn1-c1ccccc1F`, the inhibition was 38% (inactive).

Take `CCCCC[C@@H](C)N1C[C@@H](COCc2ccccc2)Oc2cc(N3CC[C@@H](N(C)C)C3)ccc2S1(=O)=O`: the inhibition was 76%.

As for `COc1ccccc1CNc1nc(NCc2ccc3occc3c2)c2sccc2n1`, the inhibition was 22% (inactive).

As for `CC(C)CNC(=O)c1c(N)n(Cc2ccc3c(c2)OCO3)c2nc3ccccc3nc12`, the inhibition was 3% (inactive).

With `O=C(Cn1sc2ccccc2c1=O)Nc1ccc(F)cc1`, the inhibition was 38% (inactive).

As for `O=C1CC(Sc2nnnn2-c2ccccc2)C(=O)N1c1cccc(Cl)c1` (stereo not given), the inhibition was 72%.

For `Cn1cncc1C#Cc1c(-c2ccc(S(C)(=O)=O)cc2)sc2ccccc12`, the inhibition is 13% (inactive).

Regarding `CN1CCN(CCCNC(=O)c2ccc(/C=C3\Sc4ccccc4N(Cc4ccc(F)cc4)C3=O)cc2)CC1`, the inhibition is -12% (inactive).

Take `Cc1cc(N2CCN(c3nc(-c4ccc([N+](=O)[O-])cc4)cs3)CC2)c2ccccc2n1`: the inhibition was 80%.

Regarding `CCC(=C(c1ccc(OC)cc1)c1ccc(OC)cc1)c1cn(CC(O)CN2CCN(C)CC2)c2ccccc12` (stereo not given), the inhibition is 1% (inactive).

Regarding `CC(C)(c1ccccc1)c1ccc(OCC(O)CNC2CCN(Cc3ccccc3)CC2)cc1` (stereo not given), the inhibition was 83%.

For `N#Cc1ccc(NC(=O)Nc2ccc(Oc3ccc(NC(=O)Nc4ccc(C#N)cc4)cc3)cc2)cc1`, the inhibition was 36% (inactive).

On to `O=C(Cn1sc2ccccc2c1=O)NC12CC3CC(CC(C3)C1)C2`, for which the inhibition was 33% (inactive).

On to `COc1ccc(-c2cc(NC=O)c3ncc(-c4cccc(OC)c4)n3c2)cc1`, for which the inhibition is 77%.

Turning to `CN(C)CCNC(=O)c1ccc(-c2cn3c(-c4ccc(Oc5ccccc5)cc4)cnc3cn2)cc1`, the inhibition is 14% (inactive).

For the compound `CC(=O)Nc1ccc2sn(-c3ccccc3)c(=O)c2c1`, the inhibition was 20% (inactive).

With `CC1COCC(C)N1C1=C(Cl)C(=O)c2ccccc2C1=O` (stereo not given), the inhibition was 97%.

With `CCCS(=O)(=O)Nc1ccc(Nc2c3ccccc3nc3ccccc23)c(OC)c1`, the inhibition was 81%.

Regarding `COc1ccc(N2C(=O)CC(Sc3nnc(-c4ccccc4)o3)C2=O)cc1` (stereo not given), the inhibition was 89%.

For the compound `CCCNC(=O)Cn1sc2nc(C)cc(C)c2c1=O`, the inhibition is 38% (inactive).

`CCc1ccc(/C=C2/Sc3ccccc3N(CC(=O)NCCCN3CCOCC3)C2=O)cc1`: the inhibition is 14% (inactive).

Take `CN(c1ccccc1)S(=O)(=O)c1cccc(C(=O)NCCc2c[nH]c3ccccc23)c1`: the inhibition is 23% (inactive).

As for `O=c1c2ccccc2sn1-c1ccccc1`, the inhibition was 68%.

For `CCOc1ccccc1CNC(=O)C1CCN(c2nnc(C)c3c(C)n(-c4ccc(C)cc4)nc23)CC1`, the inhibition was 94%.

`CCc1ccc2nc(N(CCCN(C)C)C(=O)c3ccc(S(=O)(=O)N4CCc5ccccc5C4)cc3)sc2c1`: the inhibition is 67%.

As to `CCCCn1c(=N)n(CC(=O)c2ccc(Br)s2)c2ccccc21`, the inhibition is 91%.

On to `CN1CCN(c2cc(-c3ccccc3)nc3cc(-c4ccc(F)cc4)nn23)CC1`, for which the inhibition was 79%.

Regarding `CN(C)CCCNC(=S)NCC(c1ccc(Cl)cc1Cl)c1c[nH]c2ccccc12` (stereo not given), the inhibition was -3% (inactive).

Turning to `CCCCC[C@@H](C)N1C[C@@H](COCc2ccccc2)Oc2cc(N3CC[C@H](N(C)C)C3)ccc2S1(=O)=O`, the inhibition was 74%.

For `COc1cccc(NC(=O)Nc2nc(-c3ccc(OC)c(OC)c3)cs2)c1`, the inhibition was 96%.

Turning to `O=S(=O)(c1ccccc1)c1nnn2c1nc(NC1CCN(Cc3ccccc3)CC1)c1cc(Cl)ccc12`, the inhibition is 88%.

`CCOc1cc(CNCCc2ccc(S(N)(=O)=O)cc2)ccc1OCc1ccc(Cl)cc1`: the inhibition was 90%.

As to `O=C(CN1C(=O)/C(=C\c2cccc(Br)c2)Oc2ccccc21)NCCCN1CCOCC1`, the inhibition was 24% (inactive).

Turning to `CC1(C(=O)OCC(=O)Nc2nc(-c3ccc(F)c(F)c3)cs2)CC1(Cl)Cl` (stereo not given), the inhibition was -8% (inactive).

As to `COC(=O)[C@]12CCCCC=C1N(Cc1cccc3ccccc13)C(=O)[C@H](CC(=O)NCc1ccc(OC)c(OC)c1)C2`, the inhibition is 14% (inactive).

As to `CCOc1ccc2nc(N(CCCN(C)C)C(=O)c3ccc(S(=O)(=O)N4CCc5ccccc5C4)cc3)sc2c1`, the inhibition was 91%.

`COc1cccc(-c2cnc3c(NC(C)=O)cc(-c4ccccc4OC)cn23)c1`: the inhibition is 68%.

For `CCOC(=O)c1c(CSc2ccccc2)n(C)c2cc(Br)c(O)c(CN(C)C)c12`, the inhibition is 25% (inactive).

As for `c1ccc(CNc2nc(NCC3CC3)nc3cc(-c4ccccc4)sc23)cc1`, the inhibition was 86%.

`N#Cc1c(Nc2ccccc2Cl)s[nH]c1=O`: the inhibition was 92%.

With `COC(=O)c1c(NC(=O)c2nc3ccccc3s2)sc2c1CC(C)(C)NC2(C)C`, the inhibition is 51%.

Turning to `COc1ccc(-n2sc3ccccc3c2=O)cc1`, the inhibition is 45% (inactive).

In the case of `CCOc1ccc2nc(C)cc(Nc3cccc([N+](=O)[O-])c3)c2c1`, the inhibition is 95%.

As to `O=C(Nc1ccc(F)cc1)c1nc(S(=O)(=O)Cc2ccccc2)ncc1Cl`, the inhibition was 97%.

(Values after PubChem BioAssay AID720662 (NMMLSC, 2013).)
